Measured values as given in patent publication US8445502B2, “Pharmaceutical formulations comprising salts of a protein kinase inhibitor and methods of using same” (Astex Pharmaceuticals, Inc., priority 2007, dated 2013).
Like-named read-outs stand apart in the source and are kept apart here.

What was measured:
[1] = tested on: HT-29 colorectal cancer cells; type: in vivo
Description: MP470 and MP470 HCl were tested against different tumor types in athymic nude mice as summarized below (Table 8). Various formulations and routes were evaluated. HT-29 colorectal cancer cells and SB-CL2 melanoma cells were implanted subcutaneously, while A549 lung cancer cells, MiaPaCa-2 pancreatic cancer cells, TT medullary thyroid cancer cells, and OVCAR-3 ovarian cancer cells were implanted […] in the hind flank of mice. All animals were allowed to develop medium-sized (80-125 mg) tumors, before initiation of dosing. Tumor volume and mouse bodyweight were followed over the course of the study.
HT-29 Colorectal Model—Eighteen athymic nude mice were injected subcutaneously with HT-29 colorectal cancer cells. After tumor formation, animals received either 10 or 20 mg/kg MP470 by intraperitoneal (IP) injection using a qd5×2 wk schedule. On Day 5 of treatment, tumor growth rates in vehicle control animals were 19.5 mm3/d, while MP470-treated animals had tumor growth rates of 1.4 mm3/d (10 mg/kg) and −5.0 mm3/d (20 mg/kg). Tumor growth continued to decline throughout the 14 days of study. On Day 14, the tumor growth rates were 16.4 mm3/d (vehicle) compared to 4.3 mm3/d (10 mg/kg) and 5.5 mm3/d (20 mg/kg) in treated animals.

[2] = both, beagle, dog, in vivo, 5 days
Description: In the first study, 2 doses of MP470 were tested, a low dose of 10 mg/kg followed 48 hours later by a dose of 20 mg/kg. Dosage escalation stopped after the 20 mg/kg dose due to observations of adverse clinical signs. After the second dose, the animals were observed everyday for 3 additional days for adverse clinical signs. Over the course of the 5 days of study both dogs gained weight. […] The female dog experienced retching immediately after dosing. Upon administration of the 20 mg/kg dose both the female and male dog experienced unacceptable adverse effects. After three more days of observation both dogs were euthanized and necropsy was performed. The necropsy observations considered abnormal include thrombus observed in the dosing veins of both dogs and possible mild venous congestion in the meningeal vein between brain hemispheres and in the venous sinus on cranial floor of the male animal. From this study the maximally tolerated dose in beagle dogs was determined to be 20 mg/kg.

[3] = tested on: Rad51; assay: Rad51 immunohistochemistry in dog colon and skin; type: in vivo; conditions: for Rad 51 Result: 2 wk post treatment with 300 mg/kg/day × 28, dog 302786
Description: A study was performed to develop a testing procedure for validation of IHC Biomarker RAD51 for the staining of tissue micro arrays (TMA). An experimental […] antibody was used (Spring Bioscience Anti-RAD51) and run using testis and lung as control tissues. The antibody was run using the Dako Envision+ detection kit. The incubation times ranged from 15 minutes to 60 minutes. Each experiment was run with and without an antigen retrieval solution with a pH of 6.0. The dilutions used for the Spring Bioscience Anti-RAD51 ranged from 1:50 to 1:500. The best results were obtained when incubated for 30 minutes, with a dilution of 1:50, using the Dako Envision+ detection kit, with antigen retrieval at the pH of 6.0 based on manual scoring by a board certified pathologist. […] Rare nuclear staining was observed.
A study was conducted to investigate the changes in RAD51 expression levels after chronic treatment with MP470 hydrochloride salt two weeks post treatment with oral once daily dosing for 28 days at 300 mg/kg compared to the control (vehicle only, no drug) to healthy dogs. Tissue specimens from the colon and skin were analyzed for RAD51 expression using the procedure described above. The data in Table 9 confirm that MP470.HCl suppresses and sustains the suppression of RAD51 expression levels in normal proliferating tissues such as in colon and skin.
Dose-response effects of MP470.HCl on Rad51 were evaluated in normal beagle dogs that were administered MP470.HCl orally. Colon and skin tissues were obtained from five different groups, including vehicle control group, three groups of differing dose levels of MP470.HCl following a 28 day daily treatment with MP470.HCl, and a post-treatment recovery group two weeks after treatment daily for 28 days with 300 mg/kg of MP470.HCl. These tissue specimens were stained for Rad51 using immunohistochemistry (IHC) techniques on an automated staining platform. A mouse Anti-Rad51 antibody was used for this purpose. Positive and negative controls were used to validate the staining procedure. The data is reported as a percentage based on the scoring of the staining intensity by a board-certified pathologist. Staining intensity was reported as mean percent for n=3 in all cases except the recovery group, where n=1.

SMILES	tumor growth rate ([1]; Day 5, 10 mg/kg IP qd5×2 wk (vehicle 19.5)) [mm3/d]	tumor growth rate ([1]; Day 5, 20 mg/kg IP qd5×2 wk (vehicle 19.5)) [mm3/d]	tumor growth rate ([1]; Day 14, 10 mg/kg IP (vehicle 16.4)) [mm3/d]	tumor growth rate ([1]; Day 14, 20 mg/kg IP (vehicle 16.4)) [mm3/d]	Outcome: tumor growth ([1]; HT-29 colon, IP 10, 20 mg/kg, (qd × 5) × 2 w, TV-13)	maximally tolerated dose [2] [mg/kg]	Rad51 staining Skin (%) ([3]; 30 mg/Kg oral daily 28 days, n=3 (vehicle 20))	Rad51 staining Colon (%) ([3]; 30 mg/Kg oral daily 28 days, n=3 (vehicle 71))	Rad51 staining Skin (%) ([3]; 100 mg/Kg oral daily 28 days, n=3 (vehicle 20))	Rad51 staining Colon (%) ([3]; 100 mg/Kg oral daily 28 days, n=3 (vehicle 71))	Rad51 staining Skin (%) ([3]; 300 mg/Kg oral daily 28 days, n=3 (vehicle 20))	Rad51 staining Colon (%) ([3]; 300 mg/Kg oral daily 28 days, n=3 (vehicle 71))	suppression of Rad51 in tissues of dogs ([3]; 30, 100, 300 mg/kg oral daily 28 days)	Rad 51 Result ([3]; Colon) [%]	Rad51 staining Skin (%) ([3]; Recovery (2 wk post treatment with 300 mg/kg), n=1 (vehicle 20))	Rad51 staining Colon (%) ([3]; Recovery (2 wk post treatment with 300 mg/kg), n=1 (vehicle 71))	Rad 51 Result ([3]; Skin) [%]
S=C(NCc1ccc2c(c1)OCO2)N1CCN(c2ncnc3c2oc2ccccc23)CC1 [MP470, 4-[1]benzofuro[3,2-d]pyrimidin-4-yl-N-(1,3-benzodioxol-5-ylmethyl)piperazine-1-carbothioamide]	1.4	−5.0	4.3	5.5	tumor growth was slowed but not reversed	20	–	–	–	–	–	–	–	–	–	–	–
Cl.S=C(NCc1ccc2c(c1)OCO2)N1CCN(c2ncnc3c2oc2ccccc23)CC1 [MP470.HCl, 4-[1]benzofuro[3,2-d]pyrimidin-4-yl-N-(1,3-benzodioxol-5-ylmethyl)piperazine-1-carbothioamide hydrochloride]	–	–	–	–	–	–	14	61	17	56	11	35	dose-dependent suppression of Rad51	58	7	19	12
